In BindingDB's records for PubMed 10565829 (Loughborough University, 1999):
pKi: −log10 of the molar value.

Legend:
[1] = molecular target: Kappa-type opioid receptor (Cavia porcellus, UniProt P41144)
Mu-type opioid receptor = Mu-type opioid receptor (Cavia porcellus, UniProt P97266)
Mu-type opioid receptor, sequence (P97266 whole entry): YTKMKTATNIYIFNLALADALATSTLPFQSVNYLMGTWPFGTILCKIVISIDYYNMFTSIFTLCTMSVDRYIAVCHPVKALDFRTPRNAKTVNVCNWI

Kappa-type opioid receptor, sequence (P41144 whole entry): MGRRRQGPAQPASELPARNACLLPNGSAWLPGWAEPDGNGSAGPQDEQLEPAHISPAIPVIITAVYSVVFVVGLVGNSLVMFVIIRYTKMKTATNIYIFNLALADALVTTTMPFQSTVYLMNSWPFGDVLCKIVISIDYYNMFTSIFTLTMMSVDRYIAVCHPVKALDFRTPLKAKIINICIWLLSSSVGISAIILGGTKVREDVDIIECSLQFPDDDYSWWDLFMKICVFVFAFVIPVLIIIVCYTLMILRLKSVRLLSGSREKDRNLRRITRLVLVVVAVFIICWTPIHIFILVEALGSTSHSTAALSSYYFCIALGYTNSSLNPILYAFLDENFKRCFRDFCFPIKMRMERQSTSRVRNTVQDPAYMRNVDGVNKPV

## CO[C@@]12CC[C@@]3(C[C@@H]1[C@@](C)(O)C(C)(C)C)[C@H]1Cc4ccc(O)c5c4[C@@]3(CCN1CC1CC1)[C@H]2O5 [BUPRENORPHINE]
[1]
  pKi: 8.70
Mu-type opioid receptor
  pKi: 9.24
